In patent publication US5451688A, “Hexahydronaphthalene ester derivatives, their preparation and their therapeutic uses” (Sankyo Company, Limited, priority 1992, dated 1995) one finds ED50 and IC50 data, which are given here for eight compounds.

In assay [1] the test system is sterol synthesis in the liver. Put plainly: inhibitory activity against sterol synthesis in mouse liver. Type of assay: in vivo. The following applies: read-out: Sterol-synthesis inhibitory activity ED50. How it is done: Detemination of inhibitory activity against sterol synsthesis in mouse liver
Sterol synthesis in the liver in mice was measured by the method of Koga et al. [Biochem. Biophys.
15 μl of [^14 C]acetate was intraperitoneally injected into each mouse. One hour later, the animal was sacrificed by decapitation and the liver was excised. Sterol synthesis in the liver was measured by the incorporation of [^14 C]activity into the digitoninprecipitable sterols.
The sterol synthesis activity in a control animal receiving only a 1% Tween 80 solution was defined as 100%.

The next assay addresses T1, HMG-CoA reductase (Rattus norvegicus, UniProt P51639).
T1 sequence (P51639 1-887): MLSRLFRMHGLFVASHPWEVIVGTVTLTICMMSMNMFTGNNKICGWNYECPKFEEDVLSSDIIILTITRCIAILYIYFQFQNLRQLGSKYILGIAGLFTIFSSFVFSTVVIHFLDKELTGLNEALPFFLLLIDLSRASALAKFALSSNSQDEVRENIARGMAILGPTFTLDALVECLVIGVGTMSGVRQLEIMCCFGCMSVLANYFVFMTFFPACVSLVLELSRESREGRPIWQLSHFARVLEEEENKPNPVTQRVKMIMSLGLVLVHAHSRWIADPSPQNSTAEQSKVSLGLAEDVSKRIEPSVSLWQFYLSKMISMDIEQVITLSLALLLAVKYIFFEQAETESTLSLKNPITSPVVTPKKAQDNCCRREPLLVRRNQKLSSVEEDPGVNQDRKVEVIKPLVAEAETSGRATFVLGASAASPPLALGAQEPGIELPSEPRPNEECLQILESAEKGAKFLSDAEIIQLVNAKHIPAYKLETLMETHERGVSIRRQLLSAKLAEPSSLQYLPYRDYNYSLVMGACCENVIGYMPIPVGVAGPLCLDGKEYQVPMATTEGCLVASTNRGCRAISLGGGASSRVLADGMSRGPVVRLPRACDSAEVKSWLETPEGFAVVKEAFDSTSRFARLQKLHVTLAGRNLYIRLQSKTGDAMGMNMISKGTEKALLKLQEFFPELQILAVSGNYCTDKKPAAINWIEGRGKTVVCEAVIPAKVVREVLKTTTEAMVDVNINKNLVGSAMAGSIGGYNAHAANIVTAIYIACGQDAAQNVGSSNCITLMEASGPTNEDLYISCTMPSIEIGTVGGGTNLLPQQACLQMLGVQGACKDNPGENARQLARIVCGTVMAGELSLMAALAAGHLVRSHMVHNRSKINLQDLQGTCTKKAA
Briefly: HMG-CoA reductase inhibitory activity. Type of assay: biochemical. The conditions noted are these: rat liver microsomal fraction, 0.2 mM [14C]HMG-CoA, pH 7.4, 15 minutes at 37° C.

[2] abbreviates: mice, oral, 2 hours before [14C]acetate, dose required to inhibit sterol synthesis in the liver by 50%.

Like-named read-outs stand apart in the source and are kept apart here.

Consider `CCCC(CCC)C(=O)O[C@H]1C[C@H](O)C=C2C=C[C@H](C)[C@H](CC[C@@H](O)C[C@@H](O)CC(=O)[O-])[C@H]21.[Na+]`, for which, in assay [1] (po), the ED50 – broadly, the dose that gives a 50% effect, or the effect in half of the subjects – was 0.15 mg/kg. For the same compound, half-maximal inhibition against HMG-CoA reductase (IC50) required 0.0355 µM.

On to `CCC(C)(CC)C(=O)O[C@H]1C[C@H](O)C=C2C=C[C@H](C)[C@H](CC[C@@H](O)C[C@@H](O)CC(=O)O)[C@H]21` [Example 51, Sodium (3R,5R)-3,5-dihydro-7-[(1S,2S,6S,8S,8aR)-6-hydroxy-2-methyl-8-(2-ethyl-2-methylbutyryloxy)-1,2,6,7,8,8a-hexahydro-1-naphthyl]heptanoate], for which, in assay [1] (setting [2]), the ED50 amounted to 0.063 mg/kg. Half-maximal inhibition at HMG-CoA reductase (IC50) required 0.0338 µM.

With `CCC(CC)(CC)C(=O)O[C@H]1C[C@H](O)C=C2C=C[C@H](C)[C@H](CC[C@@H](O)C[C@@H](O)CC(=O)O)[C@H]21` [Example 52, Sodium (3R,5R)-3,5-dihydroxy-7-[(1S,2S,6S,8S,8aR)-6-hydroxy-2-methyl-8-(2.2-diethylbutyryloxy)-1,2,6,7,8,8a-hexahydro-1-naphthyl]heptanoate], the median effective dose (ED50) in assay [1] (setting [2]) came out at 0.054 mg/kg. The IC50 (usually the midpoint of a concentration-inhibition curve) at HMG-CoA reductase was determined as 0.0323 µM.

As for `C=CCC(CC)(CC)C(=O)O[C@H]1C[C@H](O)C=C2C=C[C@H](C)[C@H](CC[C@@H](O)C[C@@H](O)CC(=O)O)[C@H]21` [Example 64, Sodium (3R,5R),3,5-dihydroxy-7-[(1S,2S,6S,8S,8aR)-6-hydroxy-2-methyl-8-(2,2-diethyl-4-pentenoyloxy)-1,2,6,7,8,8a-hexahydro-1-naphthyl]heptanoate], the ED50 in assay [1] (setting [2]) is 0.13 mg/kg. On HMG-CoA reductase, this compound came in with an IC50 of 0.0344 µM.

As to `C=CCC(CC)(CC=C)C(=O)O[C@H]1C[C@H](O)C=C2C=C[C@H](C)[C@H](CC[C@@H](O)C[C@@H](O)CC(=O)O)[C@H]21` [Example 65, Sodium (3R,5R)-3,5-dihydroxy-7-[(1S,2S,6S,8S,8aR)-6-hydroxy-2-methyl-8-(2-allyl-2-ethyl-4-pentenoyloxy)-1.2.6,7,8,8a-hexahydro-1-naphthyl]heptanoate], in assay [1] (setting [2]), the ED50 was 0.19 mg/kg. Besides, the IC50 at HMG-CoA reductase came to 0.0366 µM.

Consider `CCC[C@](C)(CC)C(=O)O[C@H]1C[C@H](O)C=C2C=C[C@H](C)[C@H](CC[C@@H](O)C[C@@H](O)CC(=O)O)[C@H]21` [Example 67, Sodium (3R,5R)-3,5-dihydroxy-7-[(2S,2S,6S,8S,8aR)-6-hydroxy-2-methyl-8-(2-ethyl-2-methylvaleryloxy)-1,2,6,7,8,8a-hexahydro-1-naphthyl]heptanoate], for which, in assay [1] (setting [2]), the ED50 came out at 0.048 mg/kg. Besides, inhibition against HMG-CoA reductase was half-maximal at 0.0321 µM (IC50).

For the compound `CCCCC(C)(C)C(=O)O[C@H]1C[C@H](O)C=C2C=C[C@H](C)[C@H](CC[C@@H](O)C[C@@H](O)CC(=O)O)[C@H]21` [Example 69, Sodium (3R,5R)-3,5-dihydroxy-7-[(1S,2S,6S,8S,8aR)-6-hydroxy-2-methyl-8-[2,2-dimethylhexanoyloxy)-1,2.6.7,8,8a-hexahydro-1-naphthyl]heptanoate], in assay [1] (setting [2]), the ED50 is 0.028 mg/kg. At HMG-CoA reductase, this compound yielded an IC50 of 0.0329 µM.

As to `CCC(C)(C)C(=O)OC1CC(O)C=C2C=CC(C)C(CCC3CC(O)CC(=O)O3)C21` (stereo not shown) [Prior art cpd., reference compound], the ED50 in assay [1] (setting [2]) worked out at 0.58 mg/kg. The compound further gave a concentration for half-maximal inhibition (IC50) against HMG-CoA reductase of 0.0449 µM.
